These results are taken from patent US20260295053A1, “COMPOUNDS FOR DEGRADATION AND INHIBITION OF KRAS (G12D) PROTEIN” (Shenzhen Ionova Life Science Co., Ltd., priority 2023, published 2026).

The structures appear in SMILES notation.

For one experiment, the target named is T1, KRAS (G12D) (Homo sapiens, UniProt P01116, G12D).
T1 construct: in-cell western with KRAS G12D antibody after 24 h
Put plainly: KRAS (G12D) cellular degradation assay in AsPC-1 cells. Format: cell-based. The note with it: 24 hours, antibody fluorescence (Odyssey CLX), DC50 half-maximal degradation concentration. The procedure, abridged: (§1)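 AsPC-1 cells: for degradation, grown to ~90% confluency, treated 24 h with 1:3 compound series ([…] to 1.5 nM), then fixed and immunostained for KRAS G12D and β-actin, read by infrared fluorescence, DC50 fitted. Proliferation: 3,500 cells/well, 6-day treatment, CellTiter Glo luminescence, IC50 fitted.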

The next experiment has as its system AsPC-1 cells. Put plainly: AsPC-1 cell proliferation assay (CellTiter Glo). Format: cell-based. The conditions noted are these: Homo sapiens, ASPC1, 144 h, 6 days. The procedure, abridged:
as §1

T1 sequence (P01116 1-188 isoform P01116-2 G12D): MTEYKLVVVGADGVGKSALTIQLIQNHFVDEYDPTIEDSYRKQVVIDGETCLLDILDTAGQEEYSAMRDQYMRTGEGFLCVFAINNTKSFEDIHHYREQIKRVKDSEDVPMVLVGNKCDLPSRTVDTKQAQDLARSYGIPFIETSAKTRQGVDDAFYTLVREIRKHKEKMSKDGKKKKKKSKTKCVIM

As a reminder, the DC50 is the concentration giving 50% degradation. Higher therefore signals degradation only at high concentration. As usually defined, the IC50 is the concentration that gives 50% inhibition. A low value points to inhibition by little substance. `CCn1nccc1-c1ccc([C@H](CO)NC(=O)[C@@H]2C[C@@H](O)CN2C(=O)[C@H](C(C)C)n2cc(-c3ccc(COc4c(-c5c(C)c(F)cc6[nH]ncc56)c(C5CC5)cc5c(N6C[C@@H]7C[C@H]6CN7)nc(OC[C@H](C)OC)nc45)cc3C)nn2)cc1` [Example 44, (2S,4R)-1-((2S)-2-(4-(4-(((4-((1S,4S)-2,5-diazabicyclo[2.2.1]heptan-2-yl)-6-cyclopropyl-7-(6-fluoro-5-methyl-1H-indazol-4-yl)-2-((S)-2-methoxypropoxy)quinazolin-8-yl)oxy)methyl)-2-methylphenyl)-1H-1,2,3-triazol-1-yl)-3-methylbutanoyl)-N—((R)-1-(4-(1-ethyl-1H-pyrazol-5-yl)phenyl)-2-hydroxyethyl)-4-hydroxypyrrolidine-2-carboxamide] yielded a DC50 at KRAS (G12D) below 10 nM. Moreover, the IC50 with AsPC-1 cells was below 10 nM.
